From patent publication US9751869B2, “LXR modulators” (BRISTOL-MYERS SQUIBB COMPANY, priority 2013, dated 2017) come the findings set out here.

The test deals with T1, LXRβ (Homo sapiens, UniProt P55055).
T1 construct: Co-transfection expression plasmids, comprising full-length LXRα (pCMX-h LXRα or LXRβ (pCMX-hLXRβ)); expressed in transfected cells; host or cells: CV-1 African green monkey kidney cells, transient transfection with pCMX-hLXRβ
T1 sequence (P55055 1-460): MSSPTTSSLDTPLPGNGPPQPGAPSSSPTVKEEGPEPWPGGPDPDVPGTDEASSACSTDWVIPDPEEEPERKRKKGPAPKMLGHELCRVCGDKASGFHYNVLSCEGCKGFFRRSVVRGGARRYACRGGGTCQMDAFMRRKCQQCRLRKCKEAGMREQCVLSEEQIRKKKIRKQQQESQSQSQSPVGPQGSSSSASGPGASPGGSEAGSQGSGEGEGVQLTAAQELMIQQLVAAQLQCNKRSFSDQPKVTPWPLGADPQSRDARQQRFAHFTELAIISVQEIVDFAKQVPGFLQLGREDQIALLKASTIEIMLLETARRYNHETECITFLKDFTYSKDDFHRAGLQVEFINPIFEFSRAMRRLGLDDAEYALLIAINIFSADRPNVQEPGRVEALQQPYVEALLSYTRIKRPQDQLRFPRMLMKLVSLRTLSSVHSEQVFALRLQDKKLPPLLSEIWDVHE
T1 sequence (P19793 1-462 partner): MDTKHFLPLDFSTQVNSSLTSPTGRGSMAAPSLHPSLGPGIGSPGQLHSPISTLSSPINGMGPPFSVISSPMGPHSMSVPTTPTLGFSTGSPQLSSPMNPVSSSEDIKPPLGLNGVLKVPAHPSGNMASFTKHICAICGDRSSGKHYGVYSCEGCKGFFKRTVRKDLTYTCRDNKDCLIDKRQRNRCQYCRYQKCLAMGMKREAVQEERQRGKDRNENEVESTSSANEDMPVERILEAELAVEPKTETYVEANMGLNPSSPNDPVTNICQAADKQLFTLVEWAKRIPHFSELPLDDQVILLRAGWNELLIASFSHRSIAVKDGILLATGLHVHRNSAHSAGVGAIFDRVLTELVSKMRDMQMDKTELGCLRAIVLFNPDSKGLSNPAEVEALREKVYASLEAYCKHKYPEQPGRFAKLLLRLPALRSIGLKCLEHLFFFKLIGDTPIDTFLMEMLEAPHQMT
The experiment in a line: LXR/LXRE co-transfection assay (luciferase reporter) in CV-1 cells, LXRβ. Conditions: for EC50: CV-1 cells transfected with pCMX-hLXRβ and LXREx1-Tk-Luciferase, 20 hours incubation, read-out: LXRbeta agonism EC50; for Emax: read-out: LXRbeta % EFFICACY
In kind it is cell-based. In outline: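 CV-1 cells transiently co-transfected with full-length human LXRβ, LXRE-Tk-luciferase reporter and β-galactosidase control, then exposed to compound (≤0.5% DMSO) for 20 h at 37 °C before luminescence read. EC50 from 10-point, half-log dose curves; efficacy relative to the sulfonamide high control, means of 2–3 experiments.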
For orientation: In a reporter assay the amount or activity of a reporter protein is the signal.

Where [1] appears, read: CV-1 cells, relative to maximum response of high control N-(3-((4-fluorophenyl)-(naphthalene-2-sulfonyl)amino)propyl)-2,2-dimethylpropionamide.

The EC50 is the concentration that produces a half-maximal response. Take `CNS(=O)(=O)c1cccc(-c2ccc(-c3cc(C(C)(F)F)nn3C)c(-n3nncc3-c3ccc(OC(F)(F)F)cc3)c2)c1` [Example 20, 4′-[3-(1,1-difluoroethyl)-1-methyl-1H-pyrazol-5-yl]-N-methyl-3′-(5-{4-[(trifluoromethyl)oxy]phenyl}-1H-1,2,3-triazol-1-yl)biphenyl-3-sulfonamide]: the EC50 amounted to 38 nM. Also, the Emax under setting [1] amounted to 86%.
In the same order, the values of `Cc1nc(-c2cc(F)c(OC(F)F)c(F)c2)c(-c2cc(-c3cc(F)c(CO)c(S(C)(=O)=O)c3)ccc2-n2cc(Cl)c(C(F)(F)F)n2)o1` [Example 422, (4′-(4-chloro-3-(trifluoromethyl)-1H-pyrazol-1-yl)-3′-(4-(4-(difluoromethoxy)-3,5-difluorophenyl)-2-methyloxazol-5-yl)-3-fluoro-5-(methylsulfonyl)-[1,1′-biphenyl]-4-yl)methanol] are 4 nM and 98%.
With `Cc1nc(-c2ccc3c(c2)OC(F)(F)O3)c(-c2cc(-c3cccc(S(C)(=O)=O)c3)ccc2-n2ccc(C(N)=O)n2)o1` [Example 359, 1-(3-(4-(2,2-difluorobenzo[d][1,3]dioxol-5-yl)-2-methyloxazol-5-yl)-3′-(methylsulfonyl)-[1,1′-biphenyl]-4-yl)-1H-pyrazole-3-carboxamide], the EC50 was determined as 316 nM. Further, the Emax under setting [1] was 14%.
Consider `Cc1nc(-c2ccc(OC(F)(F)F)cc2)c(-c2cc(-c3cc(F)c(CO)c(S(C)(=O)=O)c3)ccc2-c2cc(C(F)(F)F)nn2C)o1` [Example 93, (3-fluoro-4′-(1-methyl-3-(trifluoromethyl)-1H-pyrazol-5-yl)-3′-(2-methyl-4-(4-(trifluoromethoxy)phenyl)oxazol-5-yl)-5-(methylsulfonyl)biphenyl-4-yl)methanol], for which the EC50 worked out at 16 nM. Under setting [1], the Emax stood at 93%.
In the same order, the values of `Cc1nc(-c2ccc3c(c2)OC(F)(F)O3)c(-c2cc(-c3cccc(S(C)(=O)=O)c3)ccc2-c2cc(C(C)(C)O)nn2C)o1` [Example 54, 2-(5-(3-(4-(2,2-difluorobenzo[d][1,3]dioxol-5-yl)-2-methyloxazol-5-yl)-3′-(methylsulfonyl)biphenyl-4-yl)-1-methyl-1H-pyrazol-3-yl)propan-2-ol] are 297 nM and 53%.
Turning to `Cc1nc(-c2ccc3c(c2)OC(F)(F)O3)c(-c2cc(-c3cccc(S(C)(=O)=O)c3)ccc2-c2cc(C(F)(F)CO)nn2C)o1` [Example 49, 2-(5-(3-(4-(2,2-difluorobenzo[d][1,3]dioxol-5-yl)-2-methyloxazol-5-yl)-3′-(methylsulfonyl)biphenyl-4-yl)-1-methyl-1H-pyrazol-3-yl)-2,2-difluoroethanol], the EC50 was determined as 86 nM. Besides, the “LXRbeta % EFFICACY” value under setting [1] was determined as 69%.
Turning to `Cc1nc(-c2cc(F)c(OC(F)F)c(F)c2)c(-c2cc(-c3cccc(S(C)(=O)=O)c3)ccc2-n2ccc(C(F)(F)F)n2)o1` [Example 351, 4-(4-(difluoromethoxy)-3,5-difluorophenyl)-2-methyl-5-(3′-(methylsulfonyl)-4-(3-(trifluoromethyl)-1H-pyrazol-1-yl)biphenyl-3-yl)oxazole], the EC50 turned out to be 62 nM. Moreover, the Emax under setting [1] worked out at 77%.
Turning to `COCC(F)(F)c1cc(-c2ccc(-c3cccc(S(C)(=O)=O)c3)cc2-n2nncc2-c2ccc(OC(F)(F)F)cc2)n(C)n1` [Example 16, 1-[4-{3-[1,1-difluoro-2-(methyloxy)ethyl]-1-methyl-1H-pyrazol-5-yl}-3′-(methylsulfonyl)biphenyl-3-yl]-5-{4-[(trifluoromethyl)oxy]phenyl}-1H-1,2,3-triazole], the EC50 came out at 163 nM. In addition, the Emax under setting [1] worked out at 89%.
For `CC(=O)c1cc(-c2ccc(-c3cc(F)c(CO)c(S(C)(=O)=O)c3)cc2-c2oc(C)nc2-c2ccc3c(c2)OC(F)(F)O3)n(C)n1` [Example 133, 1-(5-(3-(4-(2,2-difluorobenzo[d][1,3]dioxol-5-yl)-2-methyloxazol-5-yl)-3′-fluoro-4′-(hydroxymethyl)-5′-(methylsulfonyl)-[1,1′-biphenyl]-4-yl)-1-methyl-1H-pyrazol-3-yl)ethanone], the EC50 amounted to 12 nM. Also, under setting [1], the Emax was found to be 66%.
As to `Cc1nc(-c2cc(F)c(OC(F)F)c(F)c2)c(-c2cc(-c3cccc(S(C)(=O)=O)c3)ccc2-n2cc(Cl)c(C(F)(F)F)n2)o1` [Example 421], the EC50 was 21 nM. Also, the Emax under setting [1] came out at 76%.
The corresponding values for `Cc1nc(-c2ccc(OC(F)(F)F)cc2)c(-c2cc(-c3cccc(C(C)(C)C#N)c3)ccc2-n2cc(Cl)c(C(F)(F)F)n2)o1` [Example 429, 2-(4′-(4-chloro-3-(trifluoromethyl)-1H-pyrazol-1-yl)-3′-(2-methyl-4-(4-(trifluoromethoxy)phenyl)oxazol-5-yl)-[1,1′-biphenyl]-3-yl)-2-methylpropanenitrile] are 348 nM and 60%.
As for `Cc1nc(-c2cc(-c3cc(F)c(CO)c(S(C)(=O)=O)c3)ccc2-n2nc(C(F)(F)F)cc2Cl)c(-c2ccc3c(c2)OC(F)(F)O3)o1` [Example 411, (4′-(5-chloro-3-(trifluoromethyl)-1H-pyrazol-1-yl)-3′-(5-(2,2-difluorobenzo[d][1,3]dioxol-5-yl)-2-methyloxazol-4-yl)-3-fluoro-5-(methylsulfonyl)biphenyl-4-yl)methanol], the EC50 was 19 nM. Moreover, the Emax under setting [1] amounted to 90%.
For the compound `Cc1nc(-c2ccc(Cl)c(OC(F)F)c2)c(-c2cc(-c3cc(F)c(CO)c(S(C)(=O)=O)c3)ccc2-n2ccc(C(F)(F)F)n2)o1` [Example 356, (3′-(4-(4-chloro-3-(difluoromethoxy)phenyl)-2-methyloxazol-5-yl)-3-fluoro-5-(methylsulfonyl)-4′-(3-(trifluoromethyl)-1H-pyrazol-1-yl)biphenyl-4-yl)methanol], the EC50 was 71 nM. Further, the Emax under setting [1] amounted to 63%.
`Cc1nc(-c2ccc3c(c2)OC(F)(F)O3)c(-c2cc(-c3cc(F)c(CO)c(S(C)(=O)=O)c3)ccc2-c2cc([C@H](C)C#N)nn2C)o1` [Example 59, (S)-2-(5-(3-(4-(2,2-difluorobenzo[d][1,3]dioxol-5-yl)-2-methyloxazol-5-yl)-3′-fluoro-4′-(hydroxymethyl)-5′-(methylsulfonyl)-[1,1′-biphenyl]-4-yl)-1-methyl-1H-pyrazol-3-yl)propanenitrile]: the EC50 turned out to be 6 nM. Further, the Emax under setting [1] was 76%.
Regarding `Cc1nc(-c2ccc3c(c2)OC(F)(F)O3)c(-c2cc(-c3cc(F)c(CO)c(S(C)(=O)=O)c3)ccc2-c2cc(C(C)O)nn2C)o1` (stereo not shown) [Example 103, 1-(5-(3-(4-(2,2-difluorobenzo[d][1,3]dioxol-5-yl)-2-methyloxazol-5-yl)-3′-fluoro-4′-(hydroxymethyl)-5′-(methylsulfonyl)-[1,1′-biphenyl]-4-yl)-1-methyl-1H-pyrazol-3-yl)ethanol], the EC50 was determined as 148 nM. The Emax under setting [1] was 47%.
On to `Cc1nc(-c2ccc3c(c2)OC(F)(F)O3)c(-c2cc(-c3cccc(S(C)(=O)=O)c3)ccc2-n2ccc(C(F)(F)F)n2)o1` [Example 350, 4-(2,2-difluorobenzo[d][1,3]dioxol-5-yl)-2-methyl-5-(3′-(methylsulfonyl)-4-(3-(trifluoromethyl)-1H-pyrazol-1-yl)biphenyl-3-yl)oxazole], for which the EC50 was 66 nM. Also, under setting [1], the Emax was 91%.
In the case of `Cc1nc(-c2ccc3c(c2)OC(F)(F)O3)c(-c2cc(-c3cc(F)c(CO)c(S(C)(=O)=O)c3)ccc2-n2cc(Cl)c(C(F)(F)F)n2)o1` [Example 420, (4′-(4-chloro-3-(trifluoromethyl)-1H-pyrazol-1-yl)-3′-(4-(2,2-difluorobenzo[d][1,3]dioxol-5-yl)-2-methyloxazol-5-yl)-3-fluoro-5-(methylsulfonyl)-[1,1′-biphenyl]-4-yl) methanol], the EC50 was found to be 7 nM. Also, the Emax under setting [1] turned out to be 74%.
